From ChEMBL document CHEMBL3994622, “Design and synthesis of new RAF kinase-inhibiting antiproliferative quinoline derivatives. Part 2: Diarylurea derivatives” (Eur J Med Chem, 2017) come the findings set out here.

Type in all cases: functional
Assay [1] has as its system UO-31. Kind of assay: Growth inhibition of human UO31 cells assessed as cell growth at 0.1 uM incubated for 48 hrs by sulforhodamine B assay relative to control. To be noted: UO-31, 48 h, read-out: Activity. For orientation: In SRB staining, fixed cells bind dye roughly in proportion to their protein.
Another assay deals with CCRF-CEM. Kind of assay: Growth inhibition of human CCRF-CEM cells assessed as cell growth at 1 uM incubated for 48 hrs by sulforhodamine B assay relative to control. The conditions noted are these: read-out: Activity.
Assay [2] relates to MOLT-4. Kind of assay: Growth inhibition of human MOLT4 cells assessed as cell growth at 0.01 uM incubated for 48 hrs by sulforhodamine B assay relative to control. To be noted: MOLT-4, 48 h, read-out: Activity.
Assay [3] concerns OVCAR-3. As to the kind of experiment: Growth inhibition of human OVCAR3 cells assessed as cell growth at 0.1 uM incubated for 48 hrs by sulforhodamine B assay relative to control. The conditions noted are these: OVCAR-3, 48 h, read-out: Activity.
The next assay concerns COLO 205. As to the kind of experiment: Growth inhibition of human COLO205 cells assessed as cell growth at 0.1 uM incubated for 48 hrs by sulforhodamine B assay relative to control. To be noted: COLO 205, 48 h, read-out: Activity.
A further assay deals with SR. As to the kind of experiment: Growth inhibition of human SR cells assessed as cell growth at 10 uM incubated for 48 hrs by sulforhodamine B assay relative to control. To be noted: read-out: Activity.
In a further assay the test system is CAKI-1. Kind of assay: Growth inhibition of human Caki1 cells assessed as cell growth at 100 uM incubated for 48 hrs by sulforhodamine B assay relative to control. To be noted: CAKI-1, 48 h, read-out: Activity.
The next assay relates to NCI-H460. Kind of assay: Growth inhibition of human NCI-H460 cells assessed as cell growth at 0.01 uM incubated for 48 hrs by sulforhodamine B assay relative to control. The conditions noted are these: NCI-H460, 48 h, read-out: Activity.
Assay [4] concerns RXF 393. Kind of assay: Growth inhibition of human RXF393 cells assessed as cell growth at 0.01 uM incubated for 48 hrs by sulforhodamine B assay relative to control. The conditions noted are these: RXF 393, 48 h, read-out: Activity.
Assay [5] deals with SK-MEL-28. As to the kind of experiment: Growth inhibition of human SK-MEL-28 cells assessed as cell growth at 100 uM incubated for 48 hrs by sulforhodamine B assay relative to control. To be noted: SK-MEL-28, 48 h, read-out: Activity.
Another assay deals with EKVX. Kind of assay: Growth inhibition of human EKVX cells assessed as cell growth at 100 uM incubated for 48 hrs by sulforhodamine B assay relative to control. To be noted: read-out: Activity.
The test system of another assay is HOP-62. Kind of assay: Growth inhibition of human HOP62 cells assessed as cell growth at 0.01 uM incubated for 48 hrs by sulforhodamine B assay relative to control. The conditions noted are these: HOP-62, 48 h, read-out: Activity.
The test system of assay [6] is KM12. Kind of assay: Growth inhibition of human KM12 cells assessed as cell growth at 100 uM incubated for 48 hrs by sulforhodamine B assay relative to control. To be noted: KM12, 48 h, read-out: Activity.
The subject of the next assay is NCI-H522. As to the kind of experiment: Growth inhibition of human NCI-H522 cells assessed as cell growth at 1 uM incubated for 48 hrs by sulforhodamine B assay relative to control. To be noted: NCI-H522, 48 h, read-out: Activity.
Assay [7] relates to OVCAR-3. Kind of assay: Growth inhibition of human OVCAR3 cells assessed as cell growth at 1 uM incubated for 48 hrs by sulforhodamine B assay relative to control. The conditions noted are these: OVCAR-3, 48 h, read-out: Activity.
The test system of a further assay is NCI-H23. As to the kind of experiment: Growth inhibition of human NCI-H23 cells assessed as cell growth at 10 uM incubated for 48 hrs by sulforhodamine B assay relative to control. To be noted: NCI-H23, 48 h, read-out: Activity.
The subject of another assay is HCT-116. As to the kind of experiment: Growth inhibition of human HCT116 cells assessed as cell growth at 0.003 uM incubated for 48 hrs by sulforhodamine B assay relative to control. The conditions noted are these: HCT-116, 48 h, read-out: Activity.
Another assay relates to MDA-MB-231. As to the kind of experiment: Growth inhibition of human MDA-MB-231 cells assessed as cell growth at 0.03 uM incubated for 48 hrs by sulforhodamine B assay relative to control. The conditions noted are these: MDA-MB-231, 48 h, read-out: Activity.
The test system of assay [8] is MOLT-4. Kind of assay: Growth inhibition of human MOLT4 cells assessed as cell growth at 0.3 uM incubated for 48 hrs by sulforhodamine B assay relative to control. To be noted: MOLT-4, 48 h, read-out: Activity.
A further assay has as its system SK-MEL-2. Kind of assay: Growth inhibition of human SK-MEL-2 cells assessed as cell growth at 0.003 uM incubated for 48 hrs by sulforhodamine B assay relative to control. The conditions noted are these: SK-MEL-2, 48 h, read-out: Activity.
Assay [9] relates to UO-31. As to the kind of experiment: Growth inhibition of human UO31 cells assessed as cell growth at 30 uM incubated for 48 hrs by sulforhodamine B assay relative to control. The conditions noted are these: UO-31, 48 h, read-out: Activity.
Assay [10] relates to RXF 393. Kind of assay: Growth inhibition of human RXF393 cells assessed as cell growth at 0.03 uM incubated for 48 hrs by sulforhodamine B assay relative to control. The conditions noted are these: RXF 393, 48 h, read-out: Activity.
Assay [11] has as its system U-251. As to the kind of experiment: Growth inhibition of human U251 cells assessed as cell growth at 3 uM incubated for 48 hrs by sulforhodamine B assay relative to control. The conditions noted are these: U-251, 48 h, read-out: Activity.
In the next assay the test system is BT-549. Kind of assay: Growth inhibition of human BT549 cells assessed as cell growth at 0.3 uM incubated for 48 hrs by sulforhodamine B assay relative to control. The conditions noted are these: BT-549, 48 h, read-out: Activity.
Assay [12] has as its system KM12. Kind of assay: Growth inhibition of human KM12 cells assessed as cell growth at 0.003 uM incubated for 48 hrs by sulforhodamine B assay relative to control. The conditions noted are these: KM12, 48 h, read-out: Activity.
The test system of the next assay is UACC-257. Kind of assay: Growth inhibition of human UACC257 cells assessed as cell growth at 3 uM incubated for 48 hrs by sulforhodamine B assay relative to control. To be noted: UACC-257, 48 h, read-out: Activity.
In another assay the test system is SW-620. As to the kind of experiment: Growth inhibition of human SW620 cells assessed as cell growth at 0.03 uM incubated for 48 hrs by sulforhodamine B assay relative to control. To be noted: SW-620, 48 h, read-out: Activity.
The subject of assay [13] is U-251. As to the kind of experiment: Growth inhibition of human U251 cells assessed as cell growth at 0.03 uM incubated for 48 hrs by sulforhodamine B assay relative to control. To be noted: U-251, 48 h, read-out: Activity.
In another assay the test system is SF-539. Kind of assay: Growth inhibition of human SF539 cells assessed as cell growth at 30 uM incubated for 48 hrs by sulforhodamine B assay relative to control. To be noted: SF-539, 48 h, read-out: Activity.
Assay [14] concerns OVCAR-3. As to the kind of experiment: Growth inhibition of human OVCAR3 cells assessed as cell growth at 3 uM incubated for 48 hrs by sulforhodamine B assay relative to control. The conditions noted are these: OVCAR-3, 48 h, read-out: Activity.
Assay [15] has as its system MOLT-4. Kind of assay: Growth inhibition of human MOLT4 cells assessed as cell growth at 3 uM incubated for 48 hrs by sulforhodamine B assay relative to control. The conditions noted are these: MOLT-4, 48 h, read-out: Activity.
Assay [16] deals with SK-MEL-28. Kind of assay: Growth inhibition of human SK-MEL-28 cells assessed as cell growth at 0.003 uM incubated for 48 hrs by sulforhodamine B assay relative to control. The conditions noted are these: SK-MEL-28, 48 h, read-out: Activity.
Another assay deals with TK-10. As to the kind of experiment: Growth inhibition of human TK10 cells assessed as cell growth at 30 uM incubated for 48 hrs by sulforhodamine B assay relative to control. The conditions noted are these: TK-10, 48 h, read-out: Activity.
For a further assay, the system named is HL-60(TB). As to the kind of experiment: Growth inhibition of human HL-60(TB) cells assessed as cell growth at 0.003 uM incubated for 48 hrs by sulforhodamine B assay relative to control. The conditions noted are these: HL-60, 48 h, read-out: Activity.

With `COc1cc2cc(Oc3ccc(NC(=O)Nc4ccc(Cl)c(Cl)c4)cc3)c(C)nc2cc1OC`, the values for the growth at 0.1 µM in the assay on UO-31 [1], with OVCAR-3 [3] and with COLO 205 were 101%, 116% and 107%, respectively. Also, the growth at 1 µM in the assay with CCRF-CEM is 78%; in the assay on NCI-H522, 68%; in the assay with OVCAR-3 [7], 94%. Also, the growth at 0.01 µM in the assay with MOLT-4 [2] was 108%; in the assay on NCI-H460 it was 105%; in the assay on RXF 393 [4], 106%; in the assay with HOP-62, 102%. The growth at 10 µM was found to be 1% in the assay on SR and 15% in the assay on NCI-H23. For the same molecule, the growth at 100 µM with CAKI-1 was -64%; with SK-MEL-28 [5] it was -77%; with EKVX, -36%; with KM12 [6], -58%.

As for `COc1cc2cc(Oc3ccc(NC(=O)Nc4ccc(Cl)c(C(F)(F)F)c4)cc3)c(C)nc2cc1OC`, the growth at 0.003 µM is 100% with HCT-116; 96% with SK-MEL-2; 100% in the assay on KM12 [12]; 99% with SK-MEL-28 [16]; 96% in the assay on HL-60(TB). Further, the growth at 0.03 µM in the assay with MDA-MB-231 came to 92%; with RXF 393 [10] it was 104%; with SW-620 it was 100%; in the assay on U-251 [13] it was 97%. In addition, the growth at 0.3 µM with MOLT-4 [8] is 98%; in the assay on BT-549, 85%. The figures for the growth at 30 µM with UO-31 [9], in the assay with SF-539 and in the assay with TK-10 were -71%, -49% and -46%, respectively. For the same molecule, the growth at 3 µM is 6% in the assay on U-251 [11], -13% with UACC-257, 14% with OVCAR-3 [14] and 10% with MOLT-4 [15].

For the molecule `COc1cc2cc(Oc3ccc(NC(=O)Nc4cc(C(F)(F)F)cc(C(F)(F)F)c4)cc3)c(C)nc2cc1OC`, the growth at 0.1 µM with UO-31 [1] was 73%; in the assay on OVCAR-3 [3], 101%; in the assay with COLO 205, 100%. Also, the results for the growth at 1 µM in the assay with CCRF-CEM, in the assay on NCI-H522 and with OVCAR-3 [7] were 39%, 63% and 27%, respectively. For the same molecule, the growth at 0.01 µM in the assay with MOLT-4 [2] was found to be 104%; in the assay on NCI-H460, 105%; in the assay on RXF 393 [4], 100%; with HOP-62, 88%. Further, the growth at 10 µM was -20% in the assay with SR and -32% in the assay on NCI-H23. In addition, the growth at 100 µM is -60% in the assay on CAKI-1, -73% with SK-MEL-28 [5], -94% in the assay on EKVX and -74% in the assay with KM12 [6].

In the case of `Cc1nc2cc(O)c(O)cc2cc1Oc1ccc(NC(=O)Nc2ccc(Cl)c(Cl)c2)cc1`, the growth at 0.003 µM came to 93% in the assay with HCT-116; 107% in the assay with SK-MEL-2; 103% with KM12 [12]; 90% in the assay on SK-MEL-28 [16]; 102% in the assay on HL-60(TB). The growth at 0.03 µM is 115% in the assay on MDA-MB-231, 96% with RXF 393 [10], 97% in the assay with SW-620 and 94% in the assay with U-251 [13]. Also, the growth at 0.3 µM in the assay with MOLT-4 [8] amounted to 106%; with BT-549, 92%. Moreover, the growth at 30 µM is -51% with UO-31 [9], -19% in the assay on SF-539 and 23% in the assay with TK-10. Further, the growth at 3 µM with U-251 [11] was 71%; in the assay on UACC-257 it was 87%; in the assay with OVCAR-3 [14], 107%; in the assay with MOLT-4 [15], 87%.
